# Measurements from US9284333B2, “Fused pyrroledicarboxamides and their use as pharmaceuticals” (SANOFI, priority 2012, dated 2016).
# Target: Human TASK-1 channels (Homo sapiens (Human), UniProt O14649)
# Assay: Determination of the activity on the TASK-1 channel in Xenopus oocytes (two-microelectrode voltage clamp)
# Assay type: cell-based
# Conditions: for IC50: human TASK-1 expressed in Xenopus oocytes, room temperature, read-out: IC50 value for TASK-1 inhibition; for inhibition at 5 µM: compound concentration 5 μM
# How it was run: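 Xenopus oocytes were injected with human TASK-1 cRNA and recorded two days later by two-microelectrode voltage clamp, holding at −90 mV with 500 ms steps to 40 mV. Superfusion used ND96, pH 7.4, at room temperature, with rising compound concentrations; percentage inhibition of control current was fitted to a dose-response curve for IC50.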
# Chain of Human TASK-1 channels (O14649 whole entry): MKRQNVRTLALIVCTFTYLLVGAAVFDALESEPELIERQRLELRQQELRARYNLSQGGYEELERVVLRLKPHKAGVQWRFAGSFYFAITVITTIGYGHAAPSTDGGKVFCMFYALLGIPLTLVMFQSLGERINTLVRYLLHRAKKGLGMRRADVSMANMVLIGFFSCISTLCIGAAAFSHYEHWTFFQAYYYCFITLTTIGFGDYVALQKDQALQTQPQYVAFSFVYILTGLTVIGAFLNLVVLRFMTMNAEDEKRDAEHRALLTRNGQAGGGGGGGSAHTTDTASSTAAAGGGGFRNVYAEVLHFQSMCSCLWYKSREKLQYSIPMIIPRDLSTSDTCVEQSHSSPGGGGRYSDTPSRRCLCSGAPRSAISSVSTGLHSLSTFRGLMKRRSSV
SMILES,IC50,inhibition at 5 µM
"C[C@@H](NC(=O)c1cc(C(=O)N2CCC[C@@H]2C)n2c1CCCC2)c1ccc(Cl)cc1 [16ly, 3-((S)-2-Methyl-pyrrolidine-1-carbonyl)-5,6,7,8-tetrahydro-indolizine-1-carboxylic acid [(R)-1-(4-chloro-phenyl)-ethyl]-amide]",92 nM,
"CC[C@@H](NC(=O)c1cc(C(=O)N2CCC[C@@H]2C)n2c1CCCC2)c1ccc2c(c1)COC2=O [16lz, 3-((S)-2-Methyl-pyrrolidine-1-carbonyl)-5,6,7,8-tetrahydro-indolizine-1-carboxylic acid [(R)-1-(1-oxo-1,3-dihydro-isobenzofuran-5-yl)-propyl]-amide]",,76%
"CC[C@@H](NC(=O)c1cc(C(=O)N[C@H](CC)c2ccccc2)n2c1CCCC2)c1ccccc1 [16ma, 5,6,7,8-Tetrahydro-indolizine-1,3-dicarboxylic acid bis-[((R)-1-phenyl-propyl)-amide]]",51 nM,
"CC[C@H](NC(=O)c1cc(C(=O)N[C@H](CC)c2ccccc2)c2n1CCCC2)c1ccccc1 [16mb, 5,6,7,8-Tetrahydro-indolizine-1,3-dicarboxylic acid 3-[((S)-1-phenyl-propyl)-amide] 1-[((R)-1-phenyl-propyl)-amide]]",13 nM,
"CC[C@@H](NC(=O)c1cc(C(=O)NCc2cnco2)c2n1CCCC2)c1ccccc1 [16mc, 5,67,8-Tetrahydro-indolizine-1,3-dicarboxylic acid 1-[(oxazol-5-ylmethyl)-amide] 3-[((R)-1-phenyl-propyl)-amide]]",620 nM,
"CC[C@@H](NC(=O)c1cc(C(=O)NCc2nccs2)c2n1CCCC2)c1ccccc1 [16md, 5,6,7,8-Tetrahydro-indolizine-1,3-dicarboxylic acid 3-[((R)-1-phenyl-propyl)-amide] 1-[(thiazol-2-ylmethyl)-amide]]",80 nM,
"CC[C@@H](NC(=O)c1cc(C(=O)Nc2nc(C)c(C)s2)c2n1CCCC2)c1ccccc1 [16me, 5,6,7,8-Tetrahydro-indolizine-1,3-dicarboxylic acid 3-[((R)-1-phenyl-propyl)-amide] 1-[(4,5-dimethyl-thiazol-2-yl)-amide]]",340 nM,
"CC[C@@H](NC(=O)c1cc(C(=O)NCC2CC2)n2c1CCCC2)c1ccccc1 [16mf, 5,6,7,8-Tetrahydro-indolizine-1,3-dicarboxylic acid 3-cyclopropylmethyl-amide 1-[((R)-1-phenyl-propyl)-amide]]",260 nM,
"CC[C@@H](NC(=O)c1cc(C(=O)N2CC[C@@H](OC)C2)n2c1CCCC2)c1ccccc1 [16mg, 3-((R)-3-Methoxy-pyrrolidine-1-carbonyl)-5,6,7,8-tetrahydro-indolizine-1-carboxylic acid ((R)-1-phenyl-propyl)-amide]",840 nM,
"CC[C@@H](NC(=O)c1cc(C(=O)N(C)CCOC)n2c1CCCC2)c1ccccc1 [16mh, 5,6,7,8-Tetrahydro-indolizine-1,3-dicarboxylic acid 3-[(2-methoxy-ethyl)-methyl-amide] 1-[((R)-1-phenyl-propyl)-amide]]",160 nM,
"CC[C@@H](NC(=O)c1cc(C(=O)N2CCCCC2)n2c1CCCC2)c1ccccc1 [16mi, 3-(Piperidine-1-carbonyl)-5,6,7,8-tetrahydro-indolizine-1-carboxylic acid ((R)-1-phenyl-propyl)-amide]",590 nM,
"CC[C@@H](NC(=O)c1cc(C(=O)N2CC[C@H](F)C2)n2c1CCCC2)c1ccccc1 [16mk, 3-((S)-3-Fluoro-pyrrolidine-1-carbonyl)-5,6,7,8-tetrahydro-indolizine-1-carboxylic acid ((R)-1-phenyl-propyl)-amide]",550 nM,
"CC[C@@H](NC(=O)c1cc(C(=O)NC2CCCCC2)n2c1CCCC2)c1ccccc1 [16ml, 5,6,7,8-Tetrahydro-indolizine-1,3-dicarboxylic acid 3-cyclohexylamide 1-[((R)-1-phenyl-propyl)-amide]]",130 nM,
"CC[C@@H](NC(=O)c1cc(C(=O)N2CCC[C@@H]2c2ccccc2)n2c1CCCC2)c1ccccc1 [16mm, 3-((R)-2-Phenyl-pyrrolidine-1-carbonyl)-5,6,7,8-tetrahydro-indolizine-1-carboxylic acid ((R)-1-phenyl-propyl)-amide]",120 nM,
"CC[C@@H](NC(=O)c1cc(C(=O)N2CCC[C@H]2c2ccccc2)n2c1CCCC2)c1ccccc1 [16mn, 3-((S)-2-Phenyl-pyrrolidine-1-carbonyl)-5,6,7,8-tetrahydro-indolizine-1-carboxylic acid ((R)-1-phenyl-propyl)-amide]",,92%
"CC[C@@H](NC(=O)c1cc(C(=O)N2CCC(F)(F)CC2)n2c1CCCC2)c1ccccc1 [16mo, 3-(4,4-Difluoro-piperidine-1-carbonyl)-5,6,7,8-tetrahydro-indolizine-1-carboxylic acid ((R)-1-phenyl-propyl)-amide]",1900 nM,
"CC[C@@H](NC(=O)c1cc(C(=O)NCC2CCCCC2)n2c1CCCC2)c1ccccc1 [16mp, 5,6,7,8-Tetrahydro-indolizine-1,3-dicarboxylic acid 3-cyclohexylmethyl-amide 1-[((R)-1-phenyl-propyl)-amide]]",93 nM,
"CC[C@@H](NC(=O)c1cc(C(=O)NCC2CCOCC2)n2c1CCCC2)c1ccccc1 [16mq, 5,6,7,8-Tetrahydro-indolizine-1,3-dicarboxylic acid 1-[((R)-1-phenyl-propyl)-amide] 3-[(tetrahydro-pyran-4-ylmethyl)-amide]]",310 nM,
"CC[C@@H](NC(=O)c1cc(C(=O)N2CCCCCC2)n2c1CCCC2)c1ccccc1 [16mr, 3-(Azepane-1-carbonyl)-5,6,7,8-tetrahydro-indolizine-1-carboxylic acid ((R)-1-phenyl-propyl)-amide]",200 nM,
"CC[C@@H](NC(=O)c1cc(C(=O)N2CCC(c3ccccc3)C2)n2c1CCCC2)c1ccccc1 (stereo partly drawn) [16ms, 3-(3-Phenyl-pyrrolidine-1-carbonyl)-5,6,7,8-tetrahydro-indolizine-1-carboxylic acid ((R)-1-phenyl-propyl)-amide]",550 nM,
"CC[C@@H](NC(=O)c1cc(C(=O)N[C@H](C)c2ccc(OC)cc2)n2c1CCCC2)c1ccccc1 [16mt, 5,6,7,8-Tetrahydro-indolizine-1,3-dicarboxylic acid 3-{[(R)-1-(4-methoxy-phenyl)-ethyl]-amide} 1-[((R)-1-phenyl-propyl)-amide]]",320 nM,
"CC[C@@H](NC(=O)c1cc(C(=O)N(C)Cc2ccc(F)cc2)n2c1CCCC2)c1ccccc1 [16mu, 5,6,7,8-Tetrahydro-indolizine-1,3-dicarboxylic acid 3-[(4-fluoro-benzyl)-methyl-amide] 1-[((R)-1-phenyl-propyl)-amide]]",75 nM,
"CC[C@@H](NC(=O)c1cc(C(=O)N[C@@H](c2ccccc2)C2CC2)n2c1CCCC2)c1ccccc1 [16mv, 5,6,7,8-Tetrahydro-indolizine-1,3-dicarboxylic acid 3-[((R)-cyclopropyl-phenyl-methyl)-amide] 1-[((R)-1-phenyl-propyl)-amide]]",48 nM,
"CC[C@@H](NC(=O)c1cc(C(=O)N[C@H](C)C2CC2)n2c1CCCC2)c1ccccc1 [16mw, 5,6,7,8-Tetrahydro-indolizine-1,3-dicarboxylic acid 3-[((R)-1-cyclopropyl-ethyl)-amide] 1-[((R)-1-phenyl-propyl)-amide]]",74 nM,
